# Assay results: patent publication US20230181537A1, “Translation Blockers Repurposed for COVID-19 Therapy” (priority 2020, published 2023)
# How the values were obtained:
# [1] = test system: SARS-CoV-2 USA-WA1/2020; type: cell-based; conditions: for viral infectivity (plaque assay): Vero-E6, MOI 0.0002, drug at 1 uM; for anti-viral activity against CoV2 infection of Vero-C6 cells: Vero-C6 (African green monkey kidney cells), dose response; for viral infectivity (number of plaques): Vero-E6, MOI 0.0001 or 0.0002, drugs added after infection at 1 uM and 10 uM
# [2] = test system: APP 5′UTR; assay: High-throughput transfection-based APP 5′UTR luciferase reporter assay in SH-SY5Y cells; type: cell-based; conditions: high-throughput screen
# [3] = test system: SARS-CoV-2; assay: Anti-viral efficacy assay by immunocytochemical fluorescence in infected Vero E6 cells; type: cell-based
# Source text: 9A: Typical anti-viral efficacy assays conducted for the top COVID-19 inhibitors from a range of APP 5′UTR-directed inhibitors. In this exemplary case, Vero E6 cells were infected with SARS-CoV-2 at a multiplicity of infection of 0.1 and treated either with DMSO (negative control) or compound at the indicated concentrations. At 2 days post infection, cells were fixed and stained with an antibody against SARS-CoV-2 nucleocapsid protein. Cell nuclei were stained with DAPI. Infection rates quantified using Qupath software. 9B: Densitometric quantitation of JTR-009 dependent inhibition of Spike protein in COVID-19 infected Vero E6 cells (based on levels of Spike immunocytochemistry shown).
# Initial virus assays were performed to experimentally test the benzimidazole APP 5′UTR directed translation blocker-9 (JTR-9) (FIG. 9). […] We tested JTR-009 for possible antiviral efficacy potentially via the related the CRRM motifs in the replicase open reading frame (ORF) related to the APP 5′UTR. We employed immunocytochemical fluorescence of Spike Protein as readout for viral infectivity. […] Therapeutic activity is being tested via the two CRRM RNA motifs in the virus replicase (FIG. 9).
# [4] = test system: APP mRNA; conditions: refs [25,27]; cited from earlier work
# [5] = test system: APP 5′UTR / IRP1; conditions: refs [25,27]; cited from earlier work
Compound,viral infectivity (plaque assay) [1],inhibition of APP 5′UTR driven expression of a Luciferase reporter gene [2] [%],anti-viral activity against CoV2 infection of Vero-C6 cells [1],viral infectivity (number of plaques) [1],other results
"CCC12C=CCN3CC[C@@]4(c5ccc(OC)cc5N(C)[C@H]4[C@@](O)(C(=O)OC)[C@@H]1OC(C)=O)[C@@H]32 (mixture of isomers) [B1, vindoline]",reduced viral infectivity,–,–,–,–
CCCSc1ccc2nc(NC(=O)OC)[nH]c2c1 [Albendazole],–,92.2,dose responsive anti-viral activity,inhibited viral infectivity,–
COC(=O)Nc1nc2ccc(Sc3ccccc3)cc2[nH]1 [Fenbendazole],–,91.5,–,–,–
Cc1ccc2[nH]c(-c3ccc(N)cc3)nc2c1 [JTR-009],–,–,dose responsive anti-viral activity,inhibited viral infectivity,"inhibition of COVID-19 viral spike protein (densitometric quantitation) ([3]; FIGS. 9A-B): inhibited COVID-19 viral spike protein; COVID-19 infectivity (immunocytochemical fluorescence of Spike Protein as readout) ([3]; MOI 0.1, 2 days post infection): dose-dependently inhibited COVID-19 infectivity; APP mRNA translation [4]: reduced APP mRNA translation; binding of the APP 5′UTR to its cognate RNA binding protein, IRP1 [5]: prevented binding"
Cc1c(OCC(F)(F)F)ccnc1C[S+]([O-])c1nc2ccccc2[nH]1 (stereo not shown) [Lansoprazole],–,–,dose responsive anti-viral activity,inhibited viral infectivity,–
"CN1CC[C@]2(C)c3cc(OC(=O)Nc4ccccc4)ccc3N(C)[C@H]12 [Posiphen, posiphen]",reduced viral infectivity,–,–,–,–
CC(O)(CCOP(=O)(O)OP(=O)(O)O)CC(=O)O (stereo not drawn) [Syn-516],reduced viral infectivity,–,–,–,–
CCCOc1ccc2nc(NC(=O)OC)[nH]c2c1 [oxibendazole],–,85.9,–,–,–
